Results reported in patent publication US20020031509A1, “Pharmaceutical composition and method for its manufacture” (priority 1999, published 2002).

Test system: P. aeruginosa
Assay: Experiment 2 screening for antibiotic effect, P. aeruginosa
Format: cell-based, Pseudomonas aeruginosa
Settings: 24 h post inoculation
Method: The second experiment consisted of a screening for antibiotic effect of individual and combined substances. The materials that were used were:
The method involved the use of a microtiter (ELISA) plate (12×8 wells, i.e 96 wells in total, obtained from NUNC) with serial dilutions of venoms and bacteria at two concentrations.
The incubation time was 24 hours. OD was monitored at 650 nm every hour the first 7-8 hours, and then at 20 hours and 24 hours post inoculation. Each well was given 200 μl of diluted venom plus bacteria.
Three-dimensional diagrams shown as FIG. 3 to 11 summarize the above results. Observe that in each diagram serge 1 (Z axis) is substance BF, serie 2 is NK, 3 is OH, 4 is BA, 5 is TA, 6 is OH+BA, 7 is OH+TA and serie 8 is reference antibiotic. On the X-axis 1-5 is concentration of substance: 500, 250, 125, 62.5 och 31.2 mikrog/ml for substances (N.B. OH+BA and OH+TA have the double concentrations, i.e. the concentration is 1000, 500, 250, 125 and 62.5 ), and 100, 50, 25, 12.5, 6.25 mikrog/ml for reference antibiotic. The name on the diagrams is the tested bacteria strain (initials only given) and time is 7 hours after incubation start at which the substance was added. The combined OH+BA and OH+TA were obtained by mixing the single venoms in the same proportions.

NC[C@H]1O[C@H](O[C@H]2[C@H](O)[C@@H](O[C@H]3O[C@H](CO)[C@@H](O)[C@H](N)[C@H]3O)[C@H](N)C[C@@H]2N)[C@H](O)[C@@H](O)[C@@H]1O [Kanamycin]
antibacterial effect: no effect
